Measurements published in patent publication US10363251B2, “(+)-morphinans as antagonists of toll-like receptor 9 and therapeutic uses thereof” (Mallinckrodt LLC, priority 2009, dated 2019).

Molecular target: T1, TLR9 (Homo sapiens, UniProt Q9NR96)
T1 construct: expressed in transfected cells; host or cells: HEK293
T1 sequence (Q9NR96 26-1032): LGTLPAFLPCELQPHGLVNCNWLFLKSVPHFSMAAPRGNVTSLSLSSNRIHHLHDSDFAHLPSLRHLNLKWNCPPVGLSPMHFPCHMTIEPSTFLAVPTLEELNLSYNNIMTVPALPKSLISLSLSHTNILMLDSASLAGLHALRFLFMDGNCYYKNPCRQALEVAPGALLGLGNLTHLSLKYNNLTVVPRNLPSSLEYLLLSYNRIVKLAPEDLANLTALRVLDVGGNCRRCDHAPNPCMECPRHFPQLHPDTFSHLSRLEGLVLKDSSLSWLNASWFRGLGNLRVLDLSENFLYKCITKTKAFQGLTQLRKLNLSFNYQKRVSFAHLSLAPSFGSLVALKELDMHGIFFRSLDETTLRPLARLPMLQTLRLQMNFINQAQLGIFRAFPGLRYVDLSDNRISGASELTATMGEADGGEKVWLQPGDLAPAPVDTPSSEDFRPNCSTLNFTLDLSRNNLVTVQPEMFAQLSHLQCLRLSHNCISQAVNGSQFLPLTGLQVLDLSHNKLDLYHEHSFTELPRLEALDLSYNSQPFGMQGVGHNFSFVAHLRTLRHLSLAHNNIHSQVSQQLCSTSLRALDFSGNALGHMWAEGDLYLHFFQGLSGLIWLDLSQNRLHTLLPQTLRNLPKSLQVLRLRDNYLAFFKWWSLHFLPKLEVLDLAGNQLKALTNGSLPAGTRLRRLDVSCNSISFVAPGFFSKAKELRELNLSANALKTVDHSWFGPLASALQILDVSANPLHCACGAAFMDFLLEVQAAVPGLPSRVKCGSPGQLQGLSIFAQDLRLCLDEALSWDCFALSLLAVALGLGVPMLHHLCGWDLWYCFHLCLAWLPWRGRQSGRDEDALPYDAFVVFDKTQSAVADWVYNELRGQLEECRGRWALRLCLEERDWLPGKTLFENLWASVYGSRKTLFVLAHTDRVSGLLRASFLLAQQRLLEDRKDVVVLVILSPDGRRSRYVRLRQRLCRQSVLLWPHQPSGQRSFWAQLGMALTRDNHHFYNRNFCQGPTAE
Assay: TLR9 screening of (+)-morphinan library, SEAP reporter in HEK293 cells expressing TLR9
Format: cell-based
Details: activator ODN2006; for OD 650 nm (mean ± sd): control (no activator) 0.14, activator 1.42 OD; for inhibition at 0.1 µM: HEK293, read-out: % Inhibition (mean), 100 nM; for inhibition at 10 µM: HEK293, read-out: % Inhibition (mean), 10 μM
Experimental: The secreted alkaline phosphatase reporter is under the control of a promoter inducible by the transcription factor NF-κB. A library of more than 100 (+)-morphinan compounds was screened for TLR9 antagonist activity by assessing NF-κB activation in the HEK293 cells expressing TLR9. This reporter gene allows the monitoring of signaling through the TLR, based on the activation of NF-κB.
In a 96-well plate (200 μL total volume) containing 50,000 cells/well, 20 μL of each sample compound was added to wells, in triplicate, followed by a 30 minute incubation at 37° C. and 5% CO2. After the 30 minutes of incubation, 20 μL of the activator ODN2006 was added to each well. The media added to the wells was designed for the detection of NF-κB induced SEAP expression. After a 16-20 hr incubation period, the OD at 650 nm was read on a Beckman Coulter AD 340C Absorbance Detector. All compounds were tested at concentrations of 10 μM and 100 nM.

Row | Compound | OD 650 nm (mean ± sd) (100 nM) [OD] | OD 650 nm (mean ± sd) (10 μM) [OD] | inhibition at 0.1 µM [%] | inhibition at 10 µM [%] | % Inhibition (mean) (100 nM, 0.1 µM) [%] | % Inhibition (mean) (10 μM) [%]
1 | COC1=C[C@]2(O)[C@@H]3Cc4ccc(OC)c(O)c4[C@]2(CCN3C)CC1=O [Compound I-30] | 1.25 ± 0.11 | 0.94 ± 0.05 | 12 | 33 | – | –
2 | COc1cc(Br)c2c3c1O[C@@H]1C(=O)CCC4C(C2)NCC[C@]341 (stereo partly shown) [II-1] | 0.97 ± 0.04 | 0.19 ± −0.2 | 32 | 86 | – | –
3 | C=CCN1CC[C@@]23c4c5c(-c6ccoc6)cc(OC)c4O[C@@H]2C(=O)CCC3C1C5 (stereo partly shown) [II-2] | 1.23 ± 0.05 | 0.12 ± 0.01 | 13 | 92 | – | –
4 | COc1cc(C(C)C)c2c3c1O[C@@H]1C(=O)CCC4C(C2)N(CC2CC2)CC[C@]341 (stereo partly shown) [II-4] | 1.18 ± 0.06 | 0.11 ± 0.01 | 17 | 92 | – | –
5 | COc1ccc2c3c1OC1C(O)CC[C@@H]4[C@H](C2)N(C)CC[C@@]314 (stereo partly shown) [II-7] | 1.32 ± 0.08 | 0.13 ± 0.02 | 7 | 91 | – | –
6 | COc1ccc2c3c1OC1C(OC(C)=O)CCC4C(C2)N(C)CC[C@]341 (stereo partly shown) [II-8] | 1.15 ± 0.07 | 1.33 ± 0.06 | 19 | 7 | – | –
7 | COc1ccc2c3c1O[C@@H]1C(NC(C)=O)CC[C@@H]4[C@H](C2)N(C)CC[C@@]314 (stereo partly shown) [II-9] | 1.25 ± 0.09 | 1.00 ± 0.02 | 12 | 29 | – | –
8 | COc1ccc2c3c1O[C@@H]1C(NCCO)CC[C@@H]4[C@H](C2)N(C)CC[C@@]314 (stereo partly shown) [II-10] | 0.24 ± 0.02 | 0.10 ± 0.01 | 83 | 93 | – | –
9 | COc1cc(Br)c2c3c1OC1C(=O)CC[C@@H]4[C@H](C2)N(C)CC[C@@]314 (stereo partly shown) [II-11] | 1.22 ± 0.10 | 0.44 ± 0.05 | 14 | 69 | – | –
10 | COc1ccc2c3c1O[C@@H]1C(=O)CC[C@@H]4[C@H](C2)NCC[C@@]314 [II-12] | 1.12 ± 0.08 | 0.81 ± 0.03 | 21 | 43 | – | –
11 | COC(=O)/C=C/c1cc(OC)c(O)c2c1CC1C3CCC(=O)C[C@@]23CCN1CC1CC1 (stereo partly shown) [II-14] | 1.18 ± 0.05 | 0.13 ± 0.00 | 17 | 91 | – | –
12 | COC(=O)/C=C/c1cc(OC)c2c3c1CC1C4CCC(=O)[C@@H](O2)[C@@]34CCN1CC1CC1 (stereo partly shown) [II-15] | 1.22 ± 0.06 | 0.23 ± 0.03 | 14 | 84 | – | –
13 | C=CCN1CC[C@@]23c4c5c(Br)cc(OC)c4O[C@@H]2C(=O)CCC3C1C5 (stereo partly shown) [II-16] | 1.43 ± 0.01 | 1.24 ± 0.11 | -1 | 13 | – | –
14 | COc1ccc2c3c1O[C@@H]1C(O)CC[C@@H]4[C@H](C2)N(CC2CC2)CC[C@@]314 (stereo partly shown) [II-17] | 1.13 ± 0.10 | 0.39 ± 0.01 | 21 | 72 | – | –
15 | C=CCN1CC[C@@]23c4c5ccc(OC)c4OC2C(O)CCC3C1C5 (stereo partly shown) [II-19] | 1.19 ± 0.03 | 0.15 ± 0.01 | 16 | 90 | – | –
16 | C=CCN1CC[C@@]23c4c5ccc(OC)c4O[C@@H]2C(NC(C)=O)CC[C@@H]3[C@@H]1C5 (stereo partly shown) [II-20] | 1.29 ± 0.02 | 1.07 ± 0.04 | 9 | 25 | – | –
17 | C=CCN1CC[C@@]23c4c5ccc(OC)c4O[C@@H]2C(=C)CC[C@@H]3[C@@H]1C5 [II-22] | 1.31 ± 0.19 | 0.75 ± 0.06 | 8 | 47 | – | –
18 | COc1cc(Br)c2c3c1O[C@@H]1C(=O)CCC4C(C2)N(CC2CC2)CC[C@]341 (stereo partly shown) [II-23] | 1.16 ± 0.01 | 0.53 ± 0.05 | 18 | 63 | – | –
19 | COc1cc(-c2ccoc2)c2c3c1O[C@@H]1C(=O)CCC4C(C2)N(CC2CC2)CC[C@]341 (stereo partly shown) [II-26] | 1.08 ± 0.06 | 0.12 ± 0.00 | 24 | 92 | – | –
20 | COc1ccc2c3c1O[C@@H]1C(O)CC[C@@H]4[C@H](C2)N(CC2CCC2)CC[C@@]314 (stereo partly shown) [II-28] | 1.32 ± 0.08 | 0.87 ± 0.03 | 7 | 39 | – | –
21 | COc1ccc2c3c1O[C@@H]1C(=O)CC[C@@H]4[C@H](C2)N(Cc2ccccc2)CC[C@@]314 [II-29] | 1.36 ± 0.17 | 0.33 ± 0.03 | 4 | 77 | – | –
22 | COc1ccc2c3c1O[C@@H]1C(=O)CC[C@@H]4[C@H](C2)N(C(=O)C2CC2)CC[C@@]314 [II-30] | 1.34 ± 0.11 | 1.13 ± 0.06 | – | – | 5 | 20
23 | COc1ccc2c3c1O[C@@H]1C(=O)CC[C@@H]4[C@H](C2)N(C(C)=O)CC[C@@]314 [II-31] | 1.40 ± 0.04 | 1.37 ± 0.11 | 2 | 3 | – | –
24 | COc1ccc2c3c1O[C@@H]1C(=O)CC[C@@H]4[C@H](C2)N(C(=O)c2ccccc2)CC[C@@]314 [II-33] | 1.35 ± 0.15 | 1.37 ± 0.03 | 5 | 3 | – | –
25 | COC1=CC=C2[C@@H]3Cc4ccc(OC)c5c4[C@]2(CCN3C)[C@@H]1O5 [II-34] | 1.39 ± 0.05 | 0.94 ± 0.08 | 2 | 34 | – | –
